Patent publication US9718828B2 (MERCK SHARP & DOHME CORP., priority 2011, dated 2017)
pEC50: −log10 of the molar value. Where a name gives a salt, the structure may show the parent alone.

Biological target: Btk enzyme (His-Btk) (Homo sapiens (Human), UniProt Q06187)
Assay: Btk enzyme activity, IMAP fluorescence polarization assay (Assay Method A)
Settings: not given

Chain of Btk enzyme (His-Btk) (Q06187 whole entry): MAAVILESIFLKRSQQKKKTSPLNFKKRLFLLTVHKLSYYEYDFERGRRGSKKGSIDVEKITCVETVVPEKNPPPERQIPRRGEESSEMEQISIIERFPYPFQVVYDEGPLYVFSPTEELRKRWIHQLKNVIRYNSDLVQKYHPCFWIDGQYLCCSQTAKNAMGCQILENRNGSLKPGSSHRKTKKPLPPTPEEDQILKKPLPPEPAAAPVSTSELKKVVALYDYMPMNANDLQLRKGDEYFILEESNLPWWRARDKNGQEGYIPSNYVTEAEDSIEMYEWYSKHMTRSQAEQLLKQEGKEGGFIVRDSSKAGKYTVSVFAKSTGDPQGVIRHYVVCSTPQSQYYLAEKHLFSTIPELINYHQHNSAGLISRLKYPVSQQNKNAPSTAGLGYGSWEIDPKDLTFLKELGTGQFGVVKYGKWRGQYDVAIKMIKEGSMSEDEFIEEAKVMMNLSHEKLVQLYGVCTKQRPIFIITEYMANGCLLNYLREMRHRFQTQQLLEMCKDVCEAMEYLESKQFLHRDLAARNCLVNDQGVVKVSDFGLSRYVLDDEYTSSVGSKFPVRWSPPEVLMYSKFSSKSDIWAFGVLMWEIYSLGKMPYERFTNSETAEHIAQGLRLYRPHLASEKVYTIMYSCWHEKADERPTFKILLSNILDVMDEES

| pEC50 | Compound |
| --- | --- |
| 6.00 to 7.00 | COCCC(=O)N1CC[C@@H](c2nc(-c3ccc(C(=O)Nc4ccccn4)cc3)c3c(N)nccn23)C1 [Example 125, (R)-4-(8-amino-3-(1-(3-methoxypropanoyl)pyrrolidin-3-yl)imidazo[1,5-a]pyrazin-1-yl)-N-(pyridin-2-yl)benzamide, TFA salt] |
| > 8.00 | Cc1noc(C)c1C(=O)N1CCC[C@@H](c2nc(-c3ccc(C(=O)Nc4cc(C(F)(F)F)ccn4)cc3)c3c(N)nccn23)C1 [Example 74, (R)-4-(8-amino-3-(1-(3,5-dimethylisoxazole-4-carbonyl)piperidin-3 yl)imidazo[1,5-a]pyrazin-1-yl)-N-(4-(trifluoromethyl)pyridin-2-yl)benzamide] |
| > 8.00 | Nc1nccn2c([C@@H]3CCCN(S(=O)(=O)C4CC4)C3)nc(-c3ccc(C(=O)Nc4cc(C(F)(F)F)ccn4)cc3)c12 [Example 75, (R)-4-(8-amino-3-(1-(cyclopropylsulfonyl)piperidin-3-yl)imidazo[1,5-a]pyrazin-1-yl)-N-(4-(trifluoromethyl)pyridin-2-yl)benzamide] |
| 6.00 to 7.00 | CCOC(=O)C1CC1CN1CCC[C@@H](c2nc(-c3ccc(C(=O)Nc4ccccn4)cc3)c3c(N)nccn23)C1 (stereo partly drawn) [Example 137, ethyl 2-(((R)-3-(8-amino-1-(4-(pyridin-2-ylcarbamoyl)phenyl)imidazo [1,5-a]pyrazin-3-yl)piperidin-1-yl)methyl) cyclopropanecarboxylate, TFA salt] |
| > 8.00 | Nc1nccn2c([C@@H]3CCCN(C(=O)C45CC(C4)C5)C3)nc(-c3ccc(C(=O)Nc4cc(C(F)(F)F)ccn4)cc3)c12 [Example 90, (R)-4-(8-amino-3-(1-(bicyclo[1.1.1]pentane-1-carbonyl)piperidin-3-yl)imidazo[1,5-a]pyrazin-1-yl)-N-(4-(trifluoromethyl)pyridin-2-yl)benzamide] |
| 7.00 to 8.00 | CO[C@@H](C)C(=O)N1CCC[C@@H](c2nc(-c3ccc(C(=O)Nc4ccccn4)cc3)c3c(N)nccn23)C1 [Example 57, 4-(8-amino-3-((R)-1-((S)-2-methoxypropanoyl)piperidin-3-yl)imidazo[1,5-a]pyrazin-1-yl)-N-(pyridin-2-yl)benzamide] |
| > 8.00 | Nc1nccn2c([C@@H]3CCCN(C(=O)C4CC(F)(F)C4)C3)nc(-c3ccc(C(=O)Nc4cc(C(F)(F)F)ccn4)cc3)c12 [Example 83, (R)-4-(8-amino-3-(1-(3,3-difluorocyclobutanecarbonyl)piperidin-3-yl)imidazo[1,5-a]pyrazin-1-yl)-N-(4-(trifluoromethyl)pyridin-2-yl)benzamide] |
| > 8.00 | CC1(C(=O)N2CCC[C@@H](c3nc(-c4ccc(C(=O)Nc5cc(C(F)(F)F)ccn5)cc4)c4c(N)nccn34)C2)CCC1 [Example 70, (R)-4-(8-amino-3-(1-(1-methylcyclobutanecarbonyl)piperidin-3-yl)imidazo[1,5-a]pyrazin-1-yl)-N-(4-(trifluoromethyl)pyridin-2-yl)benzamide] |
| ≤ 6.00 | Cc1nc(-c2ccc(C(=O)Nc3cc(C(F)(F)F)ccn3)cc2)c2c(N)ncc(C(=O)N(C)C)n12 [Example 293, 8-amino-N,N,3-trimethyl-1-(4-(4-(trifluoromethyl)pyridin-2-ylcarbamoyl)phenyl)imidazo[1,5-a]pyrazine-5-carboxamide] |
| 6.00 to 7.00 | CC1(C(=O)N2CC[C@@H](c3nc(-c4ccc(C(=O)Nc5ccccn5)cc4)c4c(N)nccn34)C2)COC1 [Example 126, (R)-4-(8-amino-3-(1-(3-methyloxetane-3-carbonyl)pyrrolidin-3-yl)imidazo[1,5-a]pyrazin-1-yl)-N-(pyridin-2-yl)benzamide, TFA salt] |
| 6.00 to 7.00 | Nc1nccn2c([C@@H]3CCCN(C(=O)C(=O)C(F)(F)F)C3)nc(-c3ccc(C(=O)Nc4cc(C5CC5)ccn4)cc3)c12 [Example 115, (R)-4-(8-amino-3-(1-(3,3,3-trifluoro-2-oxopropanoyl)piperidin-3-yl)imidazo[1,5-a]pyrazin-1-yl)-N-(4-cyclopropylpyridin-2-yl)benzamide] |
| 7.00 to 8.00 | Nc1nccn2c(N3CCC3)nc(-c3ccc(C(=O)Nc4cc(C(F)(F)F)ccn4)cc3)c12 [Example 210, 4-(8-amino-3-(azetidin-1-yl)imidazo[1,5-a]pyrazin-1-yl)-N-(4-(trifluoromethyl)pyridin-2-yl)benzamide] |
| > 8.00 | Nc1nccn2c([C@@H]3CCCN(C(=O)C4CC4)C3)nc(-c3ccc(C(=O)Nc4cc(C(F)(F)F)ccn4)cc3)c12 [Example 103, (R)-4-(8-amino-3-(1-(cyclopropanecarbonyl)piperidin-3-yl)imidazo[1,5-a]pyrazin-1-(trifluoromethyl)pyridin-2-yl)benzamide] |
| 6.00 to 7.00 | Cc1nc(-c2ccc(C(=O)Nc3cc(C(F)(F)F)ccn3)cc2)c2c(N)ncc(C(=O)NCc3cccnc3)n12 [Example 296, 8-amino-3-methyl-N-(pyridin-3-ylmethyl)-1-(4-(4-(trifluoromethyl)pyridin-2-ylcarbamoyl)phenyl)imidazo[1,5-a]pyrazine-5-carboxamide] |

Same assay, conditions: read-out: EC50 Btk activity values - Assay Method A; IMAP-FP, 60 min pre-incubation, 5 μM ATP; class 100-1000 is given as ≧100 nM-<1 μM

| pEC50 | Compound |
| --- | --- |
| > 8.00 | CCNC(=O)N1CCC[C@@H](n2nc(-c3ccc(C(=O)Nc4cc(C(F)(F)F)ccn4)cc3)c3c(N)ncnc32)C1 [Example 268, (R)-3-(4-amino-3-(4-(4-(trifluoromethyl)pyridin-2-ylcarbamoyl)phenyl)-1H-pyrazolo[3,4-d]pyrimidin-1-yl)-N-ethylpiperidine-1-carboxamide] |
| > 8.00 | COCCC(=O)N1C[C@H](c2nc(-c3ccc(C(=O)Nc4cc(C5CC5)ccn4)cc3)c3c(N)nccn23)CC[C@@H]1C (relative stereo) [Example 183, 4-(8-amino-3-((cis)-1-(3-methoxypropanoyl)-6-methylpiperidin-3-yl)imidazo[1,5-a]pyrazin-1-yl)-N-(4-cyclopropylpyridin-2-yl)benzamide, TFA salt] |
| > 8.00 | CCNC(=O)C1CCCN(c2nc(-c3ccc(C(=O)Nc4cc(C(F)(F)F)ccn4)cc3)c3c(N)nccn23)C1 (stereo not shown) [Example 236, 1-(8-amino-1-(4-(4-(trifluoromethyl)pyridin-2-ylcarbamoyl)phenyl)imidazo[1,5-a]pyrazin-3-yl)-N-ethylpiperidine-3-carboxamide, TFA salt] |
| > 8.00 | CC1(C(=O)N2CCC[C@@H](c3nc(-c4ccc(C(=O)Nc5cc(C(F)(F)F)ccn5)cc4)c4c(N)ncc(/C=C/c5ccc(F)cc5)n34)C2)COC1 [Example 318, (R,E)-4-(8-amino-5-(4-fluorostyryl)-3-(1-(3-methyloxetane-3-carbonyl)piperidin-3-yl)imidazo[1,5-a]pyrazin-1-yl)-N-(4-(trifluoromethyl)pyridin-2-yl)benzamide] |
| > 8.00 | CCOCCC(=O)N1CCC[C@@H](n2nc(-c3ccc(C(=O)Nc4cc(C(F)(F)F)ccn4)cc3)c3c(N)ncnc32)C1 [Example 281, (R)-4-(4-amino-1-(1-(3-ethoxypropanoyl)piperidin-3-yl)-1H-pyrazolo[3,4-d]pyrimidin-3-yl)-N-(4-(trifluoromethyl)pyridin-2-yl)benzamide] |
| > 8.00 | CCNC(=O)N[C@@H]1CCCN(c2nc(-c3ccc(C(=O)Nc4cc(C(F)(F)F)ccn4)cc3)c3c(N)nccn23)C1 [Example 221, (R)-4-(8-amino-3-(3-(3-ethylureido)piperidin-1-yl)imidazo[1,5-a]pyrazin-1-yl)-N-(4-(trifluoromethyl)pyridin-2-yl)benzamide] |
| > 8.00 | Nc1nccn2c(C3CCCC3)nc(-c3ccc(C(=O)Nc4ccccn4)cc3)c12 [Example 45, 4-(8-amino-3-cyclopentylimidazo[1,5-a]pyrazin-1-yl)-N-(pyridin-2-yl)benzamide, TFA salt] |
| > 8.00 | CCN(CC)C(=O)C1CCCN(c2nc(-c3ccc(C(=O)Nc4cc(C5CC5)ccn4)cc3)c3c(N)nccn23)C1 (stereo not shown) [Example 246, 1-(8-amino-1-(4-(4-cyclopropylpyridin-2-ylcarbamoyl)phenyl)imidazo[1,5-a]pyrazin-3-yl)-N,N-diethylpiperidine-3-carboxamide, TFA salt] |
| > 8.00 | CC(C)(F)C(=O)N[C@@H]1CCC[C@@H](c2nc(-c3ccc(C(=O)Nc4cc(C(F)(F)F)ccn4)cc3)c3c(N)nccn23)C1 (relative stereo) [Example 163, 4-(8-amino-3-((trans)-3-(2-fluoro-2-methylpropanamido)cyclohexyl)imidazo[1,5-a]pyrazin-1-yl)-N-(4-(trifluoromethyl)pyridin-2-yl)benzamide] |
| > 8.00 | C[C@H]1CC[C@@H](c2nc(-c3ccc(C(=O)Nc4ccccn4)cc3)c3c(N)nccn23)CN1C(=O)C1CC1 (relative stereo) [Example 192, 4-(8-amino-3-((cis)-1-(cyclopropanecarbonyl)-6-methylpiperidin-3-yl)imidazo[1,5-a]pyrazin-1-yl)-N-(pyridin-2-yl)benzamide, TFA salt] |
| > 8.00 | COCCOCCC(=O)N1CCC[C@@H](n2nc(-c3ccc(C(=O)Nc4cc(C(F)(F)F)ccn4)cc3)c3c(N)ncnc32)C1 [Example 275, (R)-4-(4-amino-1-(1-(3-(2-methoxyethoxy)propanoyl)piperidin-3-yl)-1H-pyrazolo[3,4-d]pyrimidin-3-yl)-N-(4-(trifluoromethyl)pyridin-2-yl)benzamide] |
| > 8.00 | CCOCCC(=O)N1C[C@H](c2nc(-c3ccc(C(=O)Nc4cc(C(F)(F)F)ccn4)cc3)c3c(N)nccn23)CC[C@@H]1C (relative stereo) [Example 189, 4-(8-amino-3-((cis)-1-(3-ethoxypropanoyl)-6-methylpiperidin-3-yl)imidazo[1,5-a]pyrazin-1-yl)-N-(4-(trifluoromethyl)pyridin-2-yl)benzamide, TFA salt] |
| > 8.00 | COCCC(=O)N1CCC[C@@H](c2nc(-c3ccc(C(=O)Nc4cc(C(F)(F)F)ccn4)cc3)c3c(N)ncc(/C=C/c4ccccc4)n23)C1 [Example 310, (R,E)-4-(8-amino-3-(1-(3-methoxypropanoyl)piperidin-3-yl)-5-styrylimidazo[1,5-a]pyrazin-1-yl)-N-(4-(trifluoromethyl)pyridin-2-yl)benzamide] |
| > 8.00 | Cc1ccnc(NC(=O)c2ccc(-c3nc([C@H]4CC[C@H](O)CC4)n4ccnc(N)c34)cc2)c1 [Example 5, 4-(8-amino-3-((trans)-4-hydroxycyclohexyl)imidazo[1,5-a]pyrazin-1-yl)-N-(4-methylpyridin-2-yl)benzamide] |
